Experimental data from doi:10.1101/2020.10.05.326645v1 (biorxiv, 2020).

Assays:
HhTAR1 [1] = target: T1, HhTAR1 (Halyomorpha halys, UniProt A0A8A6C5M4); format: cell-based
T1 sequence (A0A8A6C5M4 1-448): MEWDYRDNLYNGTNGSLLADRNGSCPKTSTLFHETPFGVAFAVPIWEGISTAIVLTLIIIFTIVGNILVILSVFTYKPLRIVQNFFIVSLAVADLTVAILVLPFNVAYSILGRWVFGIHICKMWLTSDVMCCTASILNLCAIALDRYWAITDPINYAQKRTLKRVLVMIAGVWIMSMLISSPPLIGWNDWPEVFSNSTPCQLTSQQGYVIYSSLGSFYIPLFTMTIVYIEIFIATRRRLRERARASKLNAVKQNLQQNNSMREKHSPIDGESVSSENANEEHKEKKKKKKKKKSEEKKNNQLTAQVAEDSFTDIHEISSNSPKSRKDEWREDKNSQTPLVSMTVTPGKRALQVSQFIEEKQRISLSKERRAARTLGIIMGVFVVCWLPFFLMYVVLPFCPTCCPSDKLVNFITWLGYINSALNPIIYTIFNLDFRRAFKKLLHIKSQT

HhTAR1 [2] = target: T1, HhTAR1; assay: Fluo-4 calcium mobilization, FlexStation II, HEK […] cells; format: cell-based

## COC(=O)[C@@H]1[C@H]2C[C@H]3c4[nH]c5ccccc5c4CCN3C[C@@H]2CC[C@@H]1O [yohimbine]
HhTAR1 [1]
  Kb: 5.5 nM

## NCCc1ccc(O)cc1 [tyramine]
HhTAR1 [2]
  EC50: 1020 nM
